Source: patent US20260226100A1, “Compound - Diagnostic Marker For Biliary Tract Cancer, Method For Detecting Enzymatic Activity, Method For Diagnosis Of Biliary Tract Cancer, Kit Comprising The Compound, Uses Of The Compound And Method For The Treatment Of Biliary Tract Cancer” (Urteste S.A., priority 2023, published 2026)
Values joined by “and” are separate entries in the source; they are usually repeats but may differ in a detail not shown here. Identical values can stand only once. *1 amine or outer side, *2 acyl side, *3 side chain or, on linkers, in order; H or OH if unused. Where no end group is shown, it is not given here. [ ]: non-standard residue; d: D form. Benzoyl(5-NH,2-NO2) = O=C(c1cc(N[*:1])ccc1[N+](=O)[O-])[*:2]; 2Abz = Nc1ccccc1C(=O)O

Experiments:
Assay type in all cases: biochemical, human
[1] = system: proteolytic enzymes in urine from a subject suffering from biliary tract cancer; assay: Absorbance measurement of substrate hydrolysis in urine from subjects with biliary tract cancer; conditions: for absorbance: 405 nm, pH 8.0, 37° C., 60 minutes, triplicate
Procedure: (§1) The activity of the novel compounds according to the invention was studied in a group of 20 subjects diagnosed with biliary tract cancer using the representative compound according to the invention. […] The remaining compounds according to the invention are characterized by the analogous mechanism of action. For this purpose, the representative compound according to the invention, ABZ^1-Glu^2-Arg^3-Arg^4-Ala^5-NH2, was dissolved in dimethyl sulfoxide (at a concentration of 0.5 mg/mL) and then 50 L of the solution was mixed with 120 L of a buffer (200 mM Tris-HCl, pH 8.0) and 80 L of urine from a subject suffering from biliary tract cancer. The measurement was performed on a 96-well plate designed for measuring absorbance and each sample was analysed in triplicate at the temperature of 37° C. The duration of the measurement was 60 minutes. During the measurement, the wavelength characteristic for the chromophore (ANB-NH2) being released was monitored at the wavelength 405 nm (range 380-430 nm).
The observed magnitude of increase in absorbance in time is different for each of the examined samples.
Such a result may be due to the difference in the activity as well as the amount of enzymes responsible for the enzymatic cleavage (proteolysis). […] The result indicates the absence of proteolytic enzymes specific/characteristic of biliary tract cancer.

[2] = system: urine samples taken from healthy persons; assay: Absorbance measurement of substrate hydrolysis in urine from healthy subjects; conditions: for absorbance: 405 nm, pH 8.0, 37° C., 60 minutes, triplicate
[3] = system: urine samples from subjects with biliary tract cancer or another neoplastic disease; assay: Selectivity of substrate cleavage in urine of patients with different cancer types; conditions: urine of patients with testicle, large intestine, kidney, prostate, pancreas, liver, lung, ovarian and rectum cancer
Excerpt: The samples tested for each type of cancer were derived from 20 different patients for each of the tested cancers. The results are mean values for given cancer types.
as §1
Furthermore, the dependence of the cleavage selectivity of the substrate, i.e. the compound according to the invention, on the cancer type being examined, was studied. […]

Question: “ABZ-Glu-Arg-Arg-Ala-ANB-NH2 ([2Abz]ERRA-{Benzoyl(5-NH,2-NO2)-NH2})” was tested. Which “cleavage of the substrate” value ([1]; all urine samples 1-13 from persons suffering from biliary tract cancer) did it give?
Answer: underwent cleavage

Question: What about the absorbance ([1]; urine sample 1, biliary tract cancer) of the same substance?
Answer: 0.004 and 0.002 and 0.003

Question: And the absorbance ([1]; urine sample 2, biliary tract cancer)?
Answer: 0.0068 and 0.0034 and 0.0053

Question: And the absorbance ([1]; urine sample 3, biliary tract cancer)?
Answer: 0.0035 and 0.005 and 0.0048

Question: What about the absorbance ([1]; urine sample 4, biliary tract cancer) of the same substance?
Answer: 0.004 and 0.0067 and 0.0051

Question: And the absorbance ([1]; urine sample 6, biliary tract cancer)?
Answer: 0.002 and 0.0021 and 0.0026

Question: What about the absorbance ([1]; urine sample 7, biliary tract cancer) of the same substance?
Answer: 0.084 and 0.092 and 0.087

Question: What about the absorbance ([1]; urine sample 8, biliary tract cancer) of the same substance?
Answer: 0.0746 and 0.0948 and 0.084

Question: And the absorbance ([1]; urine sample 9, biliary tract cancer)?
Answer: 0.053 and 0.0458 and 0.0497

Question: And the absorbance ([1]; urine sample 10, biliary tract cancer)?
Answer: 0.0436 and 0.035 and 0.041

Question: And the absorbance ([1]; urine sample 11, biliary tract cancer)?
Answer: 0.0051 and 0.0041 and 0.0048

Question: And the absorbance ([1]; urine sample 12, biliary tract cancer)?
Answer: 0.0025 and 0.0028 and 0.0032

Question: What about the absorbance ([1]; urine sample 13, biliary tract cancer) of the same substance?
Answer: 0.0046 and 0.005 and 0.0047

Question: And the absorbance ([2]; urine sample 14, healthy subject)?
Answer: 0.000000

Question: And the absorbance ([2]; urine sample 15, healthy subject)?
Answer: 0.000000

Question: And the absorbance ([2]; urine sample 16, healthy subject)?
Answer: 0.000000

Question: And the absorbance ([2]; urine sample 17, healthy subject)?
Answer: 0.000000

Question: And the absorbance ([2]; urine sample 18, healthy subject)?
Answer: 0.000000

Question: And the absorbance ([2]; urine sample 19, healthy subject)?
Answer: 0.000000

Question: And the absorbance ([2]; urine sample 20, healthy subject)?
Answer: 0.000000

Question: And the absorbance ([2]; urine sample 21, healthy subject)?
Answer: 0.000000

Question: And the absorbance ([2]; urine sample 22, healthy subject)?
Answer: 0.000000

Question: What about the absorbance ([2]; urine sample 23, healthy subject) of the same substance?
Answer: 0.000000

Question: What about the “increase in absorbance / hydrolysis” value ([2]; urine samples 14 to 23 from healthy persons) of the same substance?
Answer: does not lead to an increase in absorbance

Question: What about the “cleavage of the substrate / increase in absorbance” value [3] of the same substance?
Answer: is not subject to cleavage
